# Assay results as given in patent US20080292619A1, “Pharmaceutical Composition Containing Meltrin Antagonist” (MOCHIDA PHARMACEUTICAL CO., LTD., priority 2004, published 2008).
# In the oligonucleotide strings, read from the 5' end, every base follows the letter of its sugar. An asterisk marks phosphorothioate; unmarked linkages are phosphodiester. Other units and linkages are bracketed, terminal groups are in braces. A string of capitals states the bases alone. d = 2'-deoxy (DNA)
# Tested on: human meltrin α RNA
# Assay: Suppression of human meltrin α expression by antisense compound in RD cell (real time PCR)
# Format: cell-based
# Settings: 200 nM; RD cell; corrected by GAPDH
# Procedure: First, RD cell (ATCC) was suspended in DMEM containing 10% fetal bovine serum (FBS, SIGMA), and the suspension was inoculated in 6 well culture plate at 2.5×10^5 cells/well/2 mL. After incubating overnight at 37° C. in the presence of 5% CO2, the cells were washed twice with serum-free DMEM, and Opti-MEM medium (GIBCO) was added at 800 μL/well.
# Gene transfection reagent Lipofectin (Invitrogen) was diluted with Opti-MEM to 20 μg/mL, and the dilution was allowed to stand at room temperature for 30 minutes. Next, the antisense oligodeoxynucleotide synthesized as described above was heated at 90° C. for 3 minutes, and after quenching on ice, diluted with Opti-MEM to a concentration 10 times higher than the final concentration. Equal amounts of the Lipofectin in Opti-MEM and the antisense oligo DNA in Opti-MEM were mixed, and the mixture was incubated at room temperature for 15 minutes and added to 6 well plate at 200 μL/well.
# The culture was incubated at 37° C. for 4 hours in the presence of 5% CO2, and the culture supernatant containing the Lipofectin was removed. The cells were washed twice with serum-free DMEM, and after adding 1 mL/well of Opti-MEM and incubating for 18 hours at 37° C. in the presence of 5% CO2, the cells were subjected to the measurement of the level of expression of meltrin α RNA.
# After the washing, RNA was isolated from the cell by using RNA isolation kit (RNeasy Micro Kit, QIAGEN) according to the protocol of the kit, and RNA concentration was determined by measuring absorbance at a wavelength of 260 nm with a spectrophotometer (Nano prop, LMS Co., Ltd.) (1OD=40 μg/mL). After the quantitation, the RNA was prepared to a concentration of 0.1 μg/μL by using DEPC-treated water.
# 0.35 μg of the isolated RNA, and 3.5 μL of 10× TaqMan buffer, 7.7 μL of 25 mM MgCl2, 7.0 μL of 2.5 mM each dNTP Mix, 1.75 μL of 50 μM Random Hexamers, 0.7 μL of 20 U/μL RNase inhibitor, and 0.9 μL of 50 U/μL MultiScribe Reverse Transcriptase (all purchased from Applied Biosystems) were mixed, and water was added to make up the total volume to 35 μL. This solution was maintained at 25° C. for 10 minutes, at 48° C. for 30 minutes, and at 95° C. for 5 minutes, and reverse transcription was conducted to synthesize cDNA.
# A solution in total volume of 20 μL containing 10 μL of TaqMan Universal PCR Master Mix, 0.4 μL of 10 μM TaqMan MGB Probe (sequence 5′FAM-caccgaaggacaatccca-MGB-3′: Applied Biosystems), 0.1 μL of 50 μM Forward primer (sequence ggaagccgccagattcct) for detecting meltrin α, 0.1 μL of 50 μM Reverse primer (sequence […]) for detecting meltrin α (all purchased from Sigma-Genosys), 5 μL of the cDNA solution of (3), and 4.4 μL of water was prepared, and after maintaining the solution at 50° C. for 2 minutes and at 95° C. for 10 minutes, PCR was conducted by repeating 40 cycles of 95° C. for 15 seconds and 60° C. for 1 minute in ABI Prism 7000.
# The amount of the human meltrin α RNA was measured by conducting real time PCR by using the plasmid containing the cDNA coding for the human meltrin α for the template to generate the standard curve, and calculating RNA copy number of the meltrin α in each sample. The level of expression of GAPDH was also determined by using a primer and probe set for real time PCR of human GAPDH (Pre-Developed TaqMan Assay Reagents Human GAPDH (20×) (Cat# 4310884E, Applied Biosystems).
# The results of the real time PCR of the meltrin α was corrected by the level of expression of the GAPDH to calculate the suppression rate. […]
row,Substance,"suppression rate of expression, 200 nM"
1,"H032: aatttcgagcgagggagaca (AATTTCGAGCGAGGGAGACA; antisense; DNA, all phosphorothioate, methylation of C not given here)",+ (“+” when the suppression rate was at least 30%)
2,"H033: gtgacccagaattaccgtgt (GTGACCCAGAATTACCGTGT; antisense; DNA, all phosphorothioate, methylation of C not given here)",+ (“+” when the suppression rate was at least 30%)
3,"H034: acatgtccatggtagtaaca (ACATGTCCATGGTAGTAACA; antisense; DNA, all phosphorothioate, methylation of C not given here)",++ (“++” when the suppression rate was at least 50%)
4,"H035: ctgaatcagaatatccccgt (CTGAATCAGAATATCCCCGT; antisense; DNA, all phosphorothioate, methylation of C not given here)",++ (“++” when the suppression rate was at least 50%)
5,"H036: acacgtgctgagactgactg (ACACGTGCTGAGACTGACTG; antisense; DNA, all phosphorothioate, methylation of C not given here)",++ (“++” when the suppression rate was at least 50%)
6,"H037: ataagtcccctgagaccaga (ATAAGTCCCCTGAGACCAGA; antisense; DNA, all phosphorothioate, methylation of C not given here)",+ (“+” when the suppression rate was at least 30%)
7,"H040: ttgtatctgttggttgcact (TTGTATCTGTTGGTTGCACT; antisense; DNA, all phosphorothioate, methylation of C not given here)",+ (“+” when the suppression rate was at least 30%)
8,"H041: gcttcttcgctgggaagagt (GCTTCTTCGCTGGGAAGAGT; antisense; DNA, all phosphorothioate, methylation of C not given here)",+ (“+” when the suppression rate was at least 30%)
9,"H043: gtgttgtgatgtgatccaca (GTGTTGTGATGTGATCCACA; antisense; DNA, all phosphorothioate, methylation of C not given here)",+ (“+” when the suppression rate was at least 30%)
10,"H044: tctttgcagcgaggtttggt (TCTTTGCAGCGAGGTTTGGT; antisense; DNA, all phosphorothioate, methylation of C not given here)",++ (“++” when the suppression rate was at least 50%)
11,"H045: agagggtggtggaaacacat (AGAGGGTGGTGGAAACACAT; antisense; DNA, all phosphorothioate, methylation of C not given here)",++ (“++” when the suppression rate was at least 50%)
12,"H046: tgccttcttgcccatgtctg (TGCCTTCTTGCCCATGTCTG; antisense; DNA, all phosphorothioate, methylation of C not given here)",++ (“++” when the suppression rate was at least 50%)
13,"H048: cagctccacatacttagttg (CAGCTCCACATACTTAGTTG; antisense; DNA, all phosphorothioate, methylation of C not given here)",++ (“++” when the suppression rate was at least 50%)
14,H049: cggttgtctgccacgatcac (dC*dG*dG*dT*dT*dG*dT*dC*dT*dG*dC*dC*dA*dC*dG*dA*dT*dC*dA*dC; antisense),+ (“+” when the suppression rate was at least 30%)
15,H055: tccacgcctaccaacacgat (dT*dC*dC*dA*dC*dG*dC*dC*dT*dA*dC*dC*dA*dA*dC*dA*dC*dG*dA*dT; antisense),++ (“++” when the suppression rate was at least 50%)
16,H058: tcatggaggctggtgaatgg (dT*dC*dA*dT*dG*dG*dA*dG*dG*dC*dT*dG*dG*dT*dG*dA*dA*dT*dG*dG; antisense),++ (“++” when the suppression rate was at least 50%)
17,H061: agctgcgcattgtcatggga (dA*dG*dC*dT*dG*dC*dG*dC*dA*dT*dT*dG*dT*dC*dA*dT*dG*dG*dG*dA; antisense),+ (“+” when the suppression rate was at least 30%)
18,H063: catgccgatggtggtccctt (dC*dA*dT*dG*dC*dC*dG*dA*dT*dG*dG*dT*dG*dG*dT*dC*dC*dC*dT*dT; antisense),++ (“++” when the suppression rate was at least 50%)
19,H065: ccccagactggtctgccgtg (dC*dC*dC*dC*dA*dG*dA*dC*dT*dG*dG*dT*dC*dT*dG*dC*dC*dG*dT*dG; antisense),++ (“++” when the suppression rate was at least 50%)
20,H068: gctcatgtgccagggtcacg (dG*dC*dT*dC*dA*dT*dG*dT*dG*dC*dC*dA*dG*dG*dG*dT*dC*dA*dC*dG; antisense),+ (“+” when the suppression rate was at least 30%)
21,H069: catcccgaaattgtggccca (dC*dA*dT*dC*dC*dC*dG*dA*dA*dA*dT*dT*dG*dT*dG*dG*dC*dC*dC*dA; antisense),+ (“+” when the suppression rate was at least 30%)
22,H070: ctgtccagtgtgtcatgatt (dC*dT*dG*dT*dC*dC*dA*dG*dT*dG*dT*dG*dT*dC*dA*dT*dG*dA*dT*dT; antisense),+ (“+” when the suppression rate was at least 30%)
23,H071: ccatttgacagctacagccc (dC*dC*dA*dT*dT*dT*dG*dA*dC*dA*dG*dC*dT*dA*dC*dA*dG*dC*dC*dC; antisense),+ (“+” when the suppression rate was at least 30%)
24,H072: gcagcctcctttctcaaccg (dG*dC*dA*dG*dC*dC*dT*dC*dC*dT*dT*dT*dC*dT*dC*dA*dA*dC*dC*dG; antisense),+ (“+” when the suppression rate was at least 30%)
25,H074: acaccatgggaaatgggtac (dA*dC*dA*dC*dC*dA*dT*dG*dG*dG*dA*dA*dA*dT*dG*dG*dG*dT*dA*dC; antisense),+ (“+” when the suppression rate was at least 30%)
26,H075: cttcctgctgcaactgctga (dC*dT*dT*dC*dC*dT*dG*dC*dT*dG*dC*dA*dA*dC*dT*dG*dC*dT*dG*dA),+ (“+” when the suppression rate was at least 30%)

# Same assay, conditions: 200 nM; chimeric 2′-methoxy antisense oligonucleotides; RD cell
row,Substance,"suppression rate of expression, 200 nM"
1,"H075-OMe1: chimeric antisense oligonucleotide TGCTGcaactgctgaACACC, uppercase 2′-methoxy nucleotides, lowercase phosphorothioate nucleotides (TGCTGCAACTGCTGAACACC; 2'-O-methyl at 1, 2, 3, 4, 5, 16, 17, 18, 19, 20, other sugars, backbone and T or U not given here; lowercase gap nucleotides phosphorothioate)",+ (“+” when the suppression rate was at least 30%)
2,"H075-OMe2: chimeric antisense oligonucleotide AAGTCcttcctgctgCAACT, uppercase 2′-methoxy nucleotides, lowercase phosphorothioate nucleotides (AAGTCCTTCCTGCTGCAACT; 2'-O-methyl at 1, 2, 3, 4, 5, 16, 17, 18, 19, 20, other sugars, backbone and T or U not given here; lowercase gap nucleotides phosphorothioate)",+ (“+” when the suppression rate was at least 30%)
